Laboratory results published in patent US11999794B2, “Human mesothelin chimeric antigen receptors and uses thereof” (Novartis AG, priority 2013, dated 2024).
Where two headings read alike, the source gives them in different places.

Legend:
[1] = Adverse event and safety assessment of RAD001 in elderly volunteers; type: in vivo, human; conditions: for Incidence of treatment-related AE: Blood cholesterol increased / Incidence of treatment-related AE: Conjunctivitis / Incidence of treatment-related AE: Diarrhea / Incidence of treatment-related AE: Dry mouth / Incidence of treatment-related AE: Dyspepsia / Incidence of treatment-related AE: Erythema / Incidence of treatment-related AE: Fatigue / Incidence of treatment-related AE: Headache / Incidence of treatment-related AE: Insomnia / Incidence of treatment-related AE: Limb discomfort / Incidence of treatment-related AE: Low density lipoprotein increased / Incidence of treatment-related AE: Mouth ulceration / Incidence of treatment-related AE: Mucosal inflammation / Incidence of treatment-related AE: Neutropenia / Incidence of treatment-related AE: Oral pain / Incidence of treatment-related AE: Paresthesia oral / Incidence of treatment-related AE: Pruritus / Incidence of treatment-related AE: Stomatitis / Incidence of treatment-related AE: Thrombocytopenia / Incidence of treatment-related AE: Tongue ulceration / Incidence of treatment-related AE: Urinary tract infection / Treatment-related AEs: Patients with AE(s) / Treatment-related AEs: Total AE(s): N = 53
Method: Adverse event assessment and blood collection for hematologic and biochemical safety assessments were performed during study visits. Adverse event information was also collected in diaries that subjects filled out at home during the 6 weeks they were on study drug. Data on all adverse events were collected from the time of informed consent until 30 days after the last study visit. Events were classified by the investigators as mild, moderate or severe.

P70 S6K = assay: Percent inhibition of P70 S6K activity in HeLa cells in vitro; conditions: concentrations from 30 pM to 4 nM
PD-1 = assay: Immunophenotyping of PBMC (FACS); type: in vivo, human; conditions: for decrease in PD-1 positive CD4 T cells compared to placebo / decrease in PD-1 positive CD8 T cells compared to placebo: adjusted for baseline
[2] = cited from earlier work
[3] = Size exclusion chromatography (oligomerization state of expressed scFvs); type: physicochemical; conditions: purified scFv
Method: Size exclusion chromatography was performed to determine the oligomerization states of the expressed scFvs. 25 μg each was injected onto a TSKGel Super SW3000 4.6 mm×300 mm column (Tosoh Bioscience) heated to 35° C. The scFvs were eluted at 0.3 mL/min in 750 mM arginine, 1 mM EDTA, 20 mM sodium phosphate, 250 mM sodium chloride, pH 7.2; the UV absorbance was monitored at 280 nm.

With CO[C@H]1C[C@@H]2CC[C@@H](C)[C@@](O)(O2)C(=O)C(=O)N2CCCC[C@H]2C(=O)O[C@H]([C@H](C)C[C@@H]2CC[C@@H](OCCO)[C@H](OC)C2)CC(=O)[C@H](C)/C=C(\C)[C@@H](O)[C@@H](OC)C(=O)[C@H](C)C[C@H](C)/C=C/C=C/C=C/1C [RAD001, (1R,9S,12S,15R,16E,18R,19R,21R,23 S,24E,26E,28E,30S,32S,35R)-1,18-dihydroxy-12-{(1R)-2-[(1 S,3R,4R)-4-(2-hydroxyethoxy)-3-methoxycyclohexyl]-1-methylethyl}-19,30-dimethoxy-15,17,21,23,29,35-hexamethyl-11,36-dioxa-4-aza-tricyclo[30.3.1.04,9]hexatriaconta-16,24,26,28-tetraene-2,3,10,14,20-pentaone] the “Incidence of treatment-related AE: Blood cholesterol increased” value (from here on “Incidence … Blood cholesterol increased”) ([1]; 0.5 mg daily) was 2 (3.8%) n (%), the “Incidence of treatment-related AE: Conjunctivitis” value (from here on “Incidence … Conjunctivitis”) ([1]; 0.5 mg daily) was 0 n (%) and the “Incidence of treatment-related AE: Diarrhea” value (“Incidence … Diarrhea” for short) ([1]; 0.5 mg daily) was 1 (1.9%) n (%). For the same molecule, the “Incidence of treatment-related AE: Dry mouth” value (shortened to “Incidence … Dry mouth”) ([1]; 0.5 mg daily) was 0 n (%), the “Incidence of treatment-related AE: Dyspepsia” value (“Incidence … Dyspepsia” for short) ([1]; 0.5 mg daily) was 0 n (%) and the “Incidence of treatment-related AE: Erythema” value (“Incidence … Erythema” below) ([1]; 0.5 mg daily) was 0 n (%). For the same molecule, the “Incidence of treatment-related AE: Fatigue” value (from here on “Incidence … Fatigue”) ([1]; 0.5 mg daily) was 0 n (%), the “Incidence of treatment-related AE: Headache” value (from here on “Incidence … Headache”) ([1]; 0.5 mg daily) was 0 n (%) and the “Incidence of treatment-related AE: Insomnia” value (shortened to “Incidence … Insomnia”) ([1]; 0.5 mg daily) was 1 (1.9%) n (%). For the same molecule, the “Incidence of treatment-related AE: Limb discomfort” value (“Incidence … Limb discomfort” below) ([1]; 0.5 mg daily) was 0 n (%), the “Incidence of treatment-related AE: Low density lipoprotein increased” value (“Incidence … Low density lipoprotein increased” for short) ([1]; 0.5 mg daily) was 2 (3.8%) n (%) and the “Incidence of treatment-related AE: Mouth ulceration” value (“Incidence … Mouth ulceration” below) ([1]; 0.5 mg daily) was 6 (11.3%) n (%). The “Incidence of treatment-related AE: Mucosal inflammation” value (from here on “Incidence … Mucosal inflammation”) ([1]; 0.5 mg daily) was 0 n (%), the “Incidence of treatment-related AE: Neutropenia” value (shortened to “Incidence … Neutropenia”) ([1]; 0.5 mg daily) was 0 n (%) and the “Incidence of treatment-related AE: Oral pain” value (shortened to “Incidence … Oral pain”) ([1]; 0.5 mg daily) was 0 n (%). The “Incidence of treatment-related AE: Paresthesia oral” value (“Incidence … Paresthesia oral” for short) ([1]; 0.5 mg daily) was 2 (3.8%) n (%), the “Incidence of treatment-related AE: Pruritus” value (shortened to “Incidence … Pruritus”) ([1]; 0.5 mg daily) was 0 n (%) and the “Incidence of treatment-related AE: Stomatitis” value (“Incidence … Stomatitis” below) ([1]; 0.5 mg daily) was 0 n (%). For the same molecule, the “Incidence of treatment-related AE: Thrombocytopenia” value (“Incidence … Thrombocytopenia” below) ([1]; 0.5 mg daily) was 0 n (%), the “Incidence of treatment-related AE: Tongue ulceration” value (from here on “Incidence … Tongue ulceration”) ([1]; 0.5 mg daily) was 3 (5.7%) n (%) and the “Incidence of treatment-related AE: Urinary tract infection” value (“Incidence … Urinary tract infection” below) ([1]; 0.5 mg daily) was 0 n (%). The “Treatment-related AEs: Patients with AE(s)” value ([1]; 0.5 mg daily) was 22 (41.5%) n (%), the “Treatment-related AEs: Total AE(s)” value ([1]; 0.5 mg daily) was 35 and the “Incidence … Blood cholesterol increased” value ([1]; 5 mg weekly) was 2 (3.8%) n (%). For the same molecule, the “Incidence … Conjunctivitis” value ([1]; 5 mg weekly) was 2 (3.8%) n (%), the “Incidence … Diarrhea” value ([1]; 5 mg weekly) was 4 (7.5%) n (%) and the “Incidence … Dry mouth” value ([1]; 5 mg weekly) was 0 n (%). For the same molecule, the “Incidence … Dyspepsia” value ([1]; 5 mg weekly) was 3 (5.7%) n (%), the “Incidence … Erythema” value ([1]; 5 mg weekly) was 2 (3.8%) n (%) and the “Incidence … Fatigue” value ([1]; 5 mg weekly) was 2 (3.8%) n (%). For the same molecule, the “Incidence … Headache” value ([1]; 5 mg weekly) was 2 (3.8%) n (%), the “Incidence … Insomnia” value ([1]; 5 mg weekly) was 2 (3.8%) n (%) and the “Incidence … Limb discomfort” value ([1]; 5 mg weekly) was 2 (3.8%) n (%). For the same molecule, the “Incidence … Low density lipoprotein increased” value ([1]; 5 mg weekly) was 1 (1.9%) n (%), the “Incidence … Mouth ulceration” value ([1]; 5 mg weekly) was 2 (3.8%) n (%) and the “Incidence … Mucosal inflammation” value ([1]; 5 mg weekly) was 0 n (%). For the same molecule, the “Incidence … Neutropenia” value ([1]; 5 mg weekly) was 0 n (%), the “Incidence … Oral pain” value ([1]; 5 mg weekly) was 2 (3.8%) n (%) and the “Incidence … Paresthesia oral” value ([1]; 5 mg weekly) was 0 n (%). The “Incidence … Pruritus” value ([1]; 5 mg weekly) was 2 (3.8%) n (%), the “Incidence … Stomatitis” value ([1]; 5 mg weekly) was 0 n (%) and the “Incidence … Thrombocytopenia” value ([1]; 5 mg weekly) was 0 n (%). For the same molecule, the “Incidence … Tongue ulceration” value ([1]; 5 mg weekly) was 1 (1.9%) n (%), the “Incidence … Urinary tract infection” value ([1]; 5 mg weekly) was 0 n (%) and the “Treatment-related AEs: Patients with AE(s)” value ([1]; 5 mg weekly) was 20 (37.7%) n (%). For the same molecule, the “Treatment-related AEs: Total AE(s)” value ([1]; 5 mg weekly) was 46, the “Incidence … Blood cholesterol increased” value ([1]; 20 mg weekly) was 2 (3.8%) n (%) and the “Incidence … Conjunctivitis” value ([1]; 20 mg weekly) was 0 n (%). The “Incidence … Diarrhea” value ([1]; 20 mg weekly) was 1 (1.9%) n (%), the “Incidence … Dry mouth” value ([1]; 20 mg weekly) was 2 (3.8%) n (%) and the “Incidence … Dyspepsia” value ([1]; 20 mg weekly) was 2 (3.8%) n (%). The “Incidence … Erythema” value ([1]; 20 mg weekly) was 0 n (%), the “Incidence … Fatigue” value ([1]; 20 mg weekly) was 4 (7.5%) n (%) and the “Incidence … Headache” value ([1]; 20 mg weekly) was 9 (17.0%) n (%). The “Incidence … Insomnia” value ([1]; 20 mg weekly) was 1 (1.9%) n (%), the “Incidence … Limb discomfort” value ([1]; 20 mg weekly) was 0 n (%) and the “Incidence … Low density lipoprotein increased” value ([1]; 20 mg weekly) was 2 (3.8%) n (%). For the same molecule, the “Incidence … Mouth ulceration” value ([1]; 20 mg weekly) was 9 (17.0%) n (%), the “Incidence … Mucosal inflammation” value ([1]; 20 mg weekly) was 2 (3.8%) n (%) and the “Incidence … Neutropenia” value ([1]; 20 mg weekly) was 3 (5.7%) n (%). For the same molecule, the “Incidence … Oral pain” value ([1]; 20 mg weekly) was 1 (1.9%) n (%), the “Incidence … Paresthesia oral” value ([1]; 20 mg weekly) was 0 n (%) and the “Incidence … Pruritus” value ([1]; 20 mg weekly) was 1 (1.9%) n (%). The “Incidence … Stomatitis” value ([1]; 20 mg weekly) was 2 (3.8%) n (%), the “Incidence … Thrombocytopenia” value ([1]; 20 mg weekly) was 2 (3.8%) n (%) and the “Incidence … Tongue ulceration” value ([1]; 20 mg weekly) was 0 n (%). For the same molecule, the “Incidence … Urinary tract infection” value ([1]; 20 mg weekly) was 2 (3.8%) n (%), the “Treatment-related AEs: Patients with AE(s)” value ([1]; 20 mg weekly) was 27 (50.9%) n (%) and the “Treatment-related AEs: Total AE(s)” value ([1]; 20 mg weekly) was 109. The “deaths during the study” value ([1]; human, in vivo) was “No deaths”, the “most common related AE” value ([1]; majority of mild severity) was “mouth ulcer” and the “severe AEs assessed as related” value ([1]; mouth ulcers, 20 mg weekly) was “Only one severe AE”. The tolerability ([1]; particularly 0.5 mg daily and 5 mg weekly) was “well tolerated”, the “serious adverse events (SAEs), relation to drug” value ([1]; three subjects, four SAEs) was “assessed as unrelated to RAD001” and the “effect on P70 S6K activity in cell lines” value (P70 S6K) was “partially inhibited P70 S6K activity”. The “percentage of PD-1 positive CD4 and CD8 cells compared to placebo cohorts” value (PD-1; in vivo) was “lower in the RAD001 as compared to placebo cohorts”, the “decrease in PD-1 positive CD4 T cells compared to placebo” value (PD-1; week 6, pooled cohort (n=84)) was 30.2% and the “decrease in PD-1 positive CD8 T cells compared to placebo” value (PD-1; week 6, pooled cohort (n=84)) was 37.4%. The “decrease in PD-1 positive CD4 T cells compared to placebo” value (PD-1; week 12, pooled cohort) was 32.7%, the “decrease in PD-1 positive CD8 T cells compared to placebo” value (PD-1; week 12, pooled cohort) was 41.4% and the “change in PD-1-positive CD8 T cells compared to placebo” value (PD-1; week 12, 0.5 mg/Day, 5 mg/Week and 20 mg/Week cohorts) was −43.3-−38.5%. For the same molecule, the trough level ([2]; 10 mg daily oncology dosing regimen) was “approximately 20 ng/ml” and the trough level ([2]; 0.75-1.5 mg bid transplant dosing regimen) was “approximately 3 ng/ml”.

B1: M5: human anti-mesothelin scFv SEQ ID NO: 43; full CAR SEQ ID NO: 67 (protein)
scFv: QVQLVQSGAEVEKPGASVKVSCKASGYTFTDYYMHWVRQAPGQGLEWMGWINPNSGGTNYAQKFQGRVTMTRDTSISTAYMELSRLRSDDTAVYYCASGWDFDYWGQGTLVTVSSGGGGSGGGGSGGGGSGGGGSDIVMTQSPSSLSASVGDRVTITCRASQSIRYYLSWYQQKPGKAPKLLIYTASILQNGVPSRFSGSGSGTDFTLTISSLQPEDFATYYCLQTYTTPDFGPGTKVEIK
In the case of B1, the “% Monomer (SEC)” value [3] is reported as 82%.
